In ChEMBL document CHEMBL2074177, “Antifolate resistance mediated by the multidrug resistance proteins MRP1 and MRP2” (Cancer Res, 1999) one finds Activity data, which are given here for one compound.

The data set concerns the target ATP-binding cassette sub-family C member 2 (Homo sapiens, UniProt Q92887). The data set is described as follows: TP_TRANSPORTER: uptake in membrane vesicle from MRP2-expressing 2008 cells. The class given is functional, cell membranes.

The structures appear in SMILES notation.

ATP-binding cassette sub-family C member 2, sequence (Q92887 whole entry): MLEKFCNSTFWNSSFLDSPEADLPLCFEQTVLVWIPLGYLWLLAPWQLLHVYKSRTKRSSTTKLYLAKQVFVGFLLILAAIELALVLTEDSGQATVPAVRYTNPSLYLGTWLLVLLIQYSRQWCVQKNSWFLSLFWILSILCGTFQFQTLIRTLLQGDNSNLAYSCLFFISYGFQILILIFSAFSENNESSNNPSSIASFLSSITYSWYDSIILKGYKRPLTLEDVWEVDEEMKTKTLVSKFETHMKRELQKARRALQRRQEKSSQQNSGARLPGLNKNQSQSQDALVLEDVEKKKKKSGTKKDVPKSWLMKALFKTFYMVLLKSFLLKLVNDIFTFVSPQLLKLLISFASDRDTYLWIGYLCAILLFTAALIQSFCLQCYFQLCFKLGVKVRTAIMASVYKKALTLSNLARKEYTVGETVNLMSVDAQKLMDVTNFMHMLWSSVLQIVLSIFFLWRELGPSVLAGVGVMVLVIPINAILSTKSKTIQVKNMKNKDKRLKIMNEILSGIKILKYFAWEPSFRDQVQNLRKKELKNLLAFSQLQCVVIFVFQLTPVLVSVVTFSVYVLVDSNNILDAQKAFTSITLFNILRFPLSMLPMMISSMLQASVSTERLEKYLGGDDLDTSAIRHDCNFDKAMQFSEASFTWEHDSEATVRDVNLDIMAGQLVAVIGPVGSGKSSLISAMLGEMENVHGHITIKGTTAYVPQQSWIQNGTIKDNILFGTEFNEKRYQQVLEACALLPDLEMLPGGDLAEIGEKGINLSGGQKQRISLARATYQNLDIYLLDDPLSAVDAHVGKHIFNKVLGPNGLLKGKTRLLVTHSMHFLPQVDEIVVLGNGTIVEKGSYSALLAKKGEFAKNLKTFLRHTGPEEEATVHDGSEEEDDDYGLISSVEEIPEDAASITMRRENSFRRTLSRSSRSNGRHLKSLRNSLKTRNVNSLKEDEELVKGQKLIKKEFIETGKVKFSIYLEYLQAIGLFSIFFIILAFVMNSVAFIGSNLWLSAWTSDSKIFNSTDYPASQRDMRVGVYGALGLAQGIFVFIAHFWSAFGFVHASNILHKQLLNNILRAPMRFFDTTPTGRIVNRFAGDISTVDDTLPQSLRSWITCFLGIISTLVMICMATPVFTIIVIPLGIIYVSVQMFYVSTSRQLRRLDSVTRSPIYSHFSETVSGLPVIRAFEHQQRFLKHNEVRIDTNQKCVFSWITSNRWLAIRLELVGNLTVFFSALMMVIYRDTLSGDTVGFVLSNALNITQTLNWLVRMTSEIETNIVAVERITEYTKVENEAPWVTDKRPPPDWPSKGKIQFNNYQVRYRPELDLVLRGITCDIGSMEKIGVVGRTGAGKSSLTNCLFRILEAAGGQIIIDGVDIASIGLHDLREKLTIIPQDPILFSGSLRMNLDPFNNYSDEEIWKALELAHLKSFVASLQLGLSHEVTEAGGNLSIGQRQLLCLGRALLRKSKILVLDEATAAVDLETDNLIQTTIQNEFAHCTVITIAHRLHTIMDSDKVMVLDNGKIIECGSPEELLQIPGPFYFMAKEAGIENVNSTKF

For the compound `CN(Cc1cnc2nc(N)nc(N)c2n1)c1ccc(C(=O)N[C@@H](CCC(=O)O)C(=O)O)cc1` [METHOTREXATE], the Activity entry is “substrate [+]”.
